From ChEMBL document CHEMBL4311991, “Design, synthesis, and biological evaluation of 1-substituted -2-aryl imidazoles targeting tubulin polymerization as potential anticancer agents” (Eur J Med Chem, 2019)
≈ marks a conversion by molar mass, not a printed value. Calls of active or inactive are those of the source. No cut-off for these calls is given here.

Experiments:
[1] = tested on: HeLa; assay: Antiproliferative activity against human HeLa cells assessed as reduction in cell viability after 72 hrs by MTT assay; format: functional, cell-based
[2] = tested on: MDA-MB-468; assay: Induction of apoptosis in human MDA-MB-468 cells assessed as late apoptotic cells at 100 nM after 24 hrs by Annexin-FITC/propidium iodide staining based flow cytometry (reference value: 1.03 to 1.59%); format: functional
[3] = tested on: T47D; assay: Antiproliferative activity against human T47D cells assessed as reduction in cell viability after 72 hrs by MTT assay; format: functional, cell-based
[4] = tested on: MDA-MB-468; assay: Induction of apoptosis in human MDA-MB-468 cells assessed as necrotic cells at 100 nM after 24 hrs by Annexin-FITC/propidium iodide staining based flow cytometry (reference value: 0.97 to 1.29%); format: functional
[5] = tested on: MDA-MB-468; assay: Induction of apoptosis in human MDA-MB-468 cells assessed as viable cells at 100 nM after 24 hrs by Annexin-FITC/propidium iodide staining based flow cytometry (reference value: 96.8%); format: functional; details: MDA-MB-468, 24 h, read-out: Activity
[6] = tested on: MDA-MB-468; assay: Induction of apoptosis in human MDA-MB-468 cells assessed as late apoptotic cells at 100 nM after 72 hrs by Annexin-FITC/propidium iodide staining based flow cytometry (reference value: 1.03 to 1.59%); format: functional
[7] = tested on: HCT-15; assay: Antiproliferative activity against human HCT15 cells assessed as reduction in cell viability after 72 hrs by MTT assay; format: functional, cell-based; details: HCT-15, 72 h
[8] = tested on: MDA-MB-468; assay: Induction of apoptosis in human MDA-MB-468 cells assessed as early apoptotic cells at 100 nM after 72 hrs by Annexin-FITC/propidium iodide staining based flow cytometry (reference value: 0.35 to 1.25%); format: functional
[9] = tested on: MDA-MB-468; assay: Induction of apoptosis in human MDA-MB-468 cells assessed as early apoptotic cells at 100 nM after 24 hrs by Annexin-FITC/propidium iodide staining based flow cytometry (reference value: 0.35 to 1.25%); format: functional
[10] = tested on: HUVEC; assay: Cytotoxicity against HUVEC assessed as reduction in cell viability after 72 hrs by MTT assay; format: cell-based; details: Homo sapiens
[11] = tested on: MDA-MB-468; assay: Induction of apoptosis in human MDA-MB-468 cells assessed as necrotic cells at 100 nM after 72 hrs by Annexin-FITC/propidium iodide staining based flow cytometry (reference value: 0.97 to 1.29%); format: functional
[12] = tested on: MDA-MB-231; assay: Antiproliferative activity against human MDA-MB-231 cells assessed as reduction in cell viability after 72 hrs by MTT assay; format: functional, cell-based; details: MDA-MB-231, 72 h
[13] = tested on: MDA-MB-468; assay: Induction of apoptosis in human MDA-MB-468 cells assessed as viable cells at 100 nM after 72 hrs by Annexin-FITC/propidium iodide staining based flow cytometry (reference value: 96.8%); format: functional; details: MDA-MB-468, 72 h, read-out: Activity
[14] = organism: Mus musculus; assay: Inhibition of tubulin polymerization in mouse B16F10 cells assessed as disruption of microtubule network at 200 nM incubated for 6 hrs by DAPI staining based confocal microscopy; format: cell-based
[15] = Retention time of the compound using acetonitrile:water at ratio of 50:50 as mobile phase by reverse-phase HPLC analysis; format: physicochemical; details: buffer
[16] = tested on: MDA-MB-468; assay: Induction of cell cycle arrest in human MDA-MB-468 cells assessed as accumulation of cells at G2/M phase at IC50 concentration by propidium iodide staining-based flow cytometric analysis; format: functional; details: TDE = time-dependent effect
[17] = tested on: MDA-MB-468; assay: Antitumor activity against human MDA-MB-468 cells xenografted in nude mouse assessed as tumour growth inhibition at 60 mg/kg, ip administered every other day for 21 days relative to control; format: functional; details: MDA-MB-468, ip, 504 h, read-out: TGI
[18] = tested on: MDA-MB-468; assay: Induction of apoptosis in human MDA-MB-468 cells assessed as early apoptotic cells at 100 nM after 48 hrs by Annexin-FITC/propidium iodide staining based flow cytometry (reference value: 0.35 to 1.25%); format: functional
[19] = tested on: MDA-MB-468; assay: Antiproliferative activity against human MDA-MB-468 cells assessed as reduction in cell viability after 72 hrs by MTT assay; format: functional, cell-based; details: MDA-MB-468, 72 h
[20] = tested on: MDA-MB-468; assay: Induction of apoptosis in human MDA-MB-468 cells assessed as necrotic cells at 100 nM after 48 hrs by Annexin-FITC/propidium iodide staining based flow cytometry (reference value: 0.97 to 1.29%); format: functional
[21] = tested on: MDA-MB-468; assay: Induction of apoptosis in human MDA-MB-468 cells assessed as late apoptotic cells at 100 nM after 48 hrs by Annexin-FITC/propidium iodide staining based flow cytometry (reference value: 1.03 to 1.59%); format: functional
[22] = tested on: HT-29; assay: Antiproliferative activity against human HT-29 cells assessed as reduction in cell viability after 72 hrs by MTT assay; format: functional, cell-based; details: HT-29, 72 h
[23] = tested on: MDA-MB-468; assay: Induction of apoptosis in human MDA-MB-468 cells assessed as viable cells at 100 nM after 48 hrs by Annexin-FITC/propidium iodide staining based flow cytometry (reference value: 96.8%); format: functional; details: MDA-MB-468, 48 h, read-out: Activity
[24] = Aqueous solubility of the compound at 1 mg/ml after 24 hrs by shake flask method based HPLC analysis; format: physicochemical
[25] = tested on: MDA-MB-468; assay: Antitumor activity against human MDA-MB-468 cells xenografted in nude mouse assessed as tumour growth inhibition at 30 mg/kg, ip administered every other day for 21 days relative to control; format: functional; details: MDA-MB-468, ip, 504 h, read-out: TGI
[26] = target: T1, Tubulin (Sus scrofa) (UniProt P02554+P02550); assay: Inhibition of pig brain tubulin polymerization at 3 to 6 uM in presence of GTP by spectrophotometric analysis relative to control
T1 sequence (P02550 whole entry, looked up): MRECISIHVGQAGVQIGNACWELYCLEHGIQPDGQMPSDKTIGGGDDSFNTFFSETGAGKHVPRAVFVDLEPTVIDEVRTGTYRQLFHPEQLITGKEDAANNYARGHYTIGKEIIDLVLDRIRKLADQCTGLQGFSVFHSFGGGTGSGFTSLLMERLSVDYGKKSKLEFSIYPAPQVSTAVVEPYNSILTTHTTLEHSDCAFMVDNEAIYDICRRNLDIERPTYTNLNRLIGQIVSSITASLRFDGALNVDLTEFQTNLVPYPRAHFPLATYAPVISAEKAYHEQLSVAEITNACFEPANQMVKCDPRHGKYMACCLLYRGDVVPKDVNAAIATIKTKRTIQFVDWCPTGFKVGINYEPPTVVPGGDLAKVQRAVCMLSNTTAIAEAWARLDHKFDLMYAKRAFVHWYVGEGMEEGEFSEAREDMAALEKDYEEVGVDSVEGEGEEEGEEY
T1 sequence (P02554 whole entry, looked up): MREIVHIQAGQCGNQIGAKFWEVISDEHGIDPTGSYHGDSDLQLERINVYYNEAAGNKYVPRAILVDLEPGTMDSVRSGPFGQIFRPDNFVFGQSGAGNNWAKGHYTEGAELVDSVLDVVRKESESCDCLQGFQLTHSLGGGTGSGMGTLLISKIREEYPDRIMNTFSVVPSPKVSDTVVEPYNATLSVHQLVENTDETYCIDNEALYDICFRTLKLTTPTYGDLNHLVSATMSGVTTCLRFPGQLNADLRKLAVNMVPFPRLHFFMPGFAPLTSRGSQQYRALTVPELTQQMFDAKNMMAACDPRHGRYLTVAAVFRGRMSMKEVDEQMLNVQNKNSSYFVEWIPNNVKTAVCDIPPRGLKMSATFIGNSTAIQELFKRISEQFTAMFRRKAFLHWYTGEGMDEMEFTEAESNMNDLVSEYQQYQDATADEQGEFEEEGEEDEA

[27] = target: T1, Tubulin (Sus scrofa); assay: (§1) Inhibition of pig brain tubulin polymerization in presence of GTP by spectrophotometric analysis
[28] = target: Tubulin (Sus scrofa, UniProt P02554+P02550); assay: as §1
[29] = Ratio of compound aqueous solubility to CA-4 aqueous solubility at 1 mg/ml after 24 hrs by shake flask method based HPLC analysis; format: physicochemical; details: buffer
[30] = 1-Octanol/water partition coefficient, log P of compound at 1 mg after 1 hr by HPLC analysis; format: physicochemical
[31] = organism: Mus musculus; assay: Inhibition of tubulin polymerization in mouse B16F10 cells assessed as disruption of microtubule network at 400 nM incubated for 6 hrs by DAPI staining based confocal microscopy; format: cell-based
[32] = Toxicity in nude mouse xenografted with human MDA-MB-468 cells assessed as effect on body weight at 30 to 60 mg/kg, ip administered every other day for 21 days; format: organism-based; details: in vivo, 504 h

Compound | IC50 [1] | Activity [2] | IC50 [3] | Activity [4] | viability at 0.1 µM [5] | Activity [6] | IC50 [7] | Activity [8] | Activity [9] | IC50 [10] | Activity [11] | IC50 [12] | viability at 0.1 µM [13] | Retention_time [15] | Activity [16] | inhibition in vivo at 60 mg/kg [17] | Activity [18] | IC50 [19] | Activity [20] | Activity [21] | further results
COc1ccc(/C=C\c2cc(OC)c(OC)c(OC)c2)cc1O [COMBRETASTATIN A4] | 9.2 nM | 15.7% | 14.6 nM | 3.67% | 79.2% | 55.3% | 3.2 nM | 1.84% | 1.44% | > 100000 nM | 9.4% | 13.5 nM | 33.4% | 12.5 min | Tde | 87.5% | 0.84% | 6.5 nM | 7.2% | 31.9% | inhibition [14]: Active; IC50 [22]: 30.5 nM; viability at 0.1 µM [23]: 60%
COc1ccc(-n2ccnc2-c2cc(OC)c(OC)c(OC)c2)cc1N | 80 nM | 3.56% | 500 nM | 1.51% | 94.5% | 22.9% | 100 nM | 1.53% | 0.38% | 58500 nM | 3.27% | 1040 nM | 72.3% | 5 min | Tde | 77% | 1.18% | 90 nM | 4.19% | 15% | solubility thermodynamic at 24 h [24]: 36.7 µg/mL (≈ 103 µM); inhibition in vivo at 30 mg/kg [25]: 48%; inhibition [26]: 100%; inhibition [27]: Dose-dependent effect; IC50 [28]: 400 nM; Ratio [29]: 13; logP at 1 h [30]: 1.77; inhibition [31]: Active; IC50 [22]: 200 nM; viability at 0.1 µM [23]: 79.6%; Activity [32]: Non-Toxic
